Where a name gives a salt, the structure may show the parent alone. Read-outs that look alike come from different tables or passages of the source.
Legend:
[1] = Release through PANi membrane in Franz diffusion cell, no iontophoresis
[2] = Text: To study the iontophoretic property of the PANi membranes, standard Ag|AgCl electrode was used.
[3] = Iontophoretic release through mouse skin with and without PANi membrane; format: in vitro ADME; details: PANi membrane and mouse skin together, iontophoresis, aqueous donor without chemical enhancer
[4] = as above; format: in vitro ADME; details: 0.3 mA/cm^2, EtOH:water 2:1 with 5% linoleic acid
Description: Skin membranes: Male hairless mice, strain SKH1, 8 weeks old, were supplied by Charles River Laboratories (Wilmington, Mass.). Mice were euthanized by carbon dioxide asphyxiation. Their skins were excised and kept at −30° C. until used.
In the case of skin membranes, the plastic bags containing the mouse skins were first taken out of the freezer and put into a beaker filled with room temperature water until they were defrosted. The skin samples were then removed from the plastic bags and cleaned of adhering fat deposits. They were then cut into small pieces of appropriate size and carefully mounted on top of the diffusion cells and left to equilibrate for 1 hour.
[formula] […] Results and Discussion
Three sets of iontophoretic experiments were carried out. In the first set, as a control test, traditional Ag|AgCl electrodes were used for the mouse skin only without the PANi membrane. In the other two sets, with the PANi membrane and the mouse skin together, either PANi|AgCl configuration or the Ag|AgCl configuration as electrodes was tested.
Therefore, instead of using a simple aqueous solution, 5% linoleic acid was added to the doxycycline HCl solution consisting of ethanol and water (EtOH: water=2:1, v/v). The reason for using ethanol was to increase the solubility of linoleic acid in the water.

[5] = PVDF membrane, aqueous-organic partitioning system, ref [9], cited from earlier work
[6] = remark: listed apart in the source
Text: For the permeation study of PANi membrane based on aqueous-organic partitioning system, doxycycline HCl suspension in light mineral oil was used as the donor solution so that its permeation results would be compared with those from a hydrophilized polyvinylidene fluoride (PVDF) membrane in a general way.

[7] = PANi + skin, Ag|AgCl electrodes
[8] = PANi + skin, PANi|AgCl electrodes

Cn1c(=O)c2c(ncn2C)n(C)c1=O [Caffeine, caffeine]
Q24 (24 hours accumulation in the receptor part) ([1]; PANi membrane only): 573 ± 246 μg/cm^2 | Permeability ([1]; PANi membrane only, aqueous donor (about 200 mg/10 ml caffeine, doxycycline HCl; about 400 mg/10 ml lidocaine HCl)): 3.33 ± 2.5 ×10⁻⁶ cm/s | Flux ([1]; PANi membrane only, aqueous donor, steady state): 240 ± 177 μg/cm^2 hr | Flux ([1]; caffeine donor concentration 5 mg/ml, PANi membrane): 66.6 μg/cm^2 h | Flux ([1]; caffeine donor concentration 10 mg/ml, PANi membrane): 136.2 μg/cm^2 h | increase in flux vis-a-vis Table 1 [2]: about 30% | release flux rate [2]: 305±79 μg/cm^2-hr

C[C@H]1c2cccc(O)c2C(=O)C2=C(O)[C@]3(O)C(=O)C(C(N)=O)=C(O)[C@@H](N(C)C)[C@@H]3[C@@H](O)[C@@H]21.Cl [Doxycycline HCl, doxycycline hydrochloride]
release, in words [3]: no release was achieved | release, in words ([4]; PANi + skin, Ag|AgCl electrode set): no release | Flux [4, 7]: 0 μg/cm^2 hr | Q24 [4, 7]: 0 μg/cm^2 | Flux [4, 8]: 94.4 ± 81.2 μg/cm^2 hr | Permeability [4, 8]: 1.56 ± 1.33 ×10⁻⁶ cm/s | Q24 [4, 8]: 2760 ± 3980 μg/cm^2 | Flux ([4]; Skin only, Ag|AgCl electrodes): 48.5 ± 8.5 μg/cm^2 hr | Permeability ([4]; Skin only, Ag|AgCl electrodes): 1.06 ± 0.186 ×10⁻⁶ cm/s | Q24 ([4]; Skin only, Ag|AgCl electrodes): 1020 ± 642 μg/cm^2 | Q ([5]; 24 hr): 1440 ± 240 μg/cm^2 | Flux [5]: 146 ± 27 μg/cm^2 hr | Permeability [5]: 8.3 ± 2.8 ×10⁻⁶ cm/s | Experimental flux [2]: 793 ± 111 μg/cm^2 hr | amount a skin patch can deliver [2]: about 0.8 mg | change of flux versus passive release (Table 1), in words [2]: increased more than ten times | release flux rate [2]: 793±111 μg/cm^2-hr | Flux [6]: 31 ± 18 μg/cm^2 hr | Permeability [6]: 0.83 ± 0.56 ×10⁻⁶ cm/s | Q [6]: 80 ± 46 μg/cm^2

CCN(CC)CC(=O)Nc1c(C)cccc1C [Lidocaine HCl, lidocaine hydrochloride]
Q24 (24 hours accumulation in the receptor part) ([1]; PANi membrane only): 3330 ± 1760 μg/cm^2 | Experimental flux [2]: 411 ± 144 μg/cm^2 hr | change of flux versus passive release (Table 1), in words [2]: small decrease in the flux | release flux rate [2]: 411±144 μg/cm^2-hr

Source: patent US8036738B2, “Iontophoretic transdermal drug delivery system based on conductive polyaniline membrane” (priority 2006, dated 2011)
